Patent US20080161232A1, “C5a Receptor Antagonist” (JERINI AG, priority 2005, published 2008)
Positions of bridges follow the written chain, without caps; N, C: chain ends. Non-standard residues stand in square brackets, D forms with d. Residues, ends and D or L forms follow the SMILES beside them. *: point of attachment. Orn(2-imidazolinyl) = N[C@@H](CCCNC1=NCCN1)C(=O)O; Dip = N[C@H](C(=O)O)C(c1ccccc1)c1ccccc1; Bta = N[C@@H](Cc1csc2ccccc12)C(=O)O; Hydrocinnamoyl = O=C(CCc1ccccc1)*; 2Thi = N[C@@H](Cc1cccs1)C(=O)O; dCha = N[C@H](CC1CCCCC1)C(=O)O; AllylGly = C=CC[C@H](N)C(=O)O; Pip = O=C(O)[C@@H]1CCCCN1; Nle = CCCC[C@H](N)C(=O)O; Orn = NCCC[C@H](N)C(=O)O; Aze = O=C(O)[C@@H]1CCN1

T1: human C5aR(CD88) (Homo sapiens, UniProt P21730)
T1 construct: expressed in transfected cells; host or cells: rat basophilic leukemia cells (RBL)
T1 sequence (P21730 1-350): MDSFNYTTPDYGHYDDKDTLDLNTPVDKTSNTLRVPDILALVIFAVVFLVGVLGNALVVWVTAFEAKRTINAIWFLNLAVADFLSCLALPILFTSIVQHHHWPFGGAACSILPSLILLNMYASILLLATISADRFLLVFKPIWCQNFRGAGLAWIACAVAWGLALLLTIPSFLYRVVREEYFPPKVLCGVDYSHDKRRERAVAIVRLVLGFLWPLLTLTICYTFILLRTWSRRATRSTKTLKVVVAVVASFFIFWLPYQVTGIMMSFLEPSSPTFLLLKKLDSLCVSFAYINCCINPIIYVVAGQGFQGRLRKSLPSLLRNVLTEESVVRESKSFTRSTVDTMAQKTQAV


What was measured:
human C5aR(CD88) [1] = target: T1, human C5aR(CD88); assay: Determination of EC50-values in an enzyme release assay (agonistic activity); assay type: cell-based; details: for EC50: agonistic activity, no C5a added, read-out: EC50; for agonistic activity (in words): cellular assay, up to a concentration of at least 1430 nM
Method: The assay procedure was described by Kohl (Kohl 1997 The Anaphylatoxins. In: Dodds, A. W., Sim, R. B. (Eds.), Complement: A Practical Approach. Oxford, pp. 135-163). Basophilic leukemia cells from rats (RBL), which express the human C5aR(CD88), were cultivated in DMEM with 10% fetal bovine serum, 100 U/ml penicillin, 100 μg/ml streptomycin and 2 mM glutamine (all components of the media from Biochrome, Berlin) to confluence at 37° C. and 10% CO2. The following specifications refer to single cell culture flask having a surface of 75 cm^2. Medium was decanted from cells. Cells were washed with 10 ml PBS (Dulbecco's PBS, Biochrome) and subsequently overlayed with 3 ml Cell Dissociation Solution (CDS, Sigma). Cells were incubated for 1 min at room temperature. Subsequently, CDS was removed and the cells were further incubated for 10-15 min at 37° C. for dissociation. In the assay, 20 μl of the solution containing the compound to be tested were used. This solution should not contain more than 2.8% DMSO. For the dilution process, the compounds were diluted in ⅓ or ½ steps. To 20 μl compound solution 75 μl of the RBL-cells were added, which were treated as follows: after dissociation cells were detached and warmed at 37° C. in 10 ml HAG-CM (20 mM HEPES; 125 mM NaCl, 5 mM KCl, 1 mM CaCl2, 1 mM MgCl2, 0,5 mM Glucose, 0,25% BSA. HEPES-preparation: 2.3 g/l HEPES-salt +2.66 g/l HEPES acid). Cells were counted and centrifuged (200×g, 10 min). The cell pellet was resuspended in preheated HAG-CM (i.e. Hepes-buffer NaCl-glucose-solution with calcium and magnesium), and the cell density was adjusted to 2×10^6 cells/ml. The cells were incubated at 37° C. for 5 min. Per ml cell suspension 27 μl of a cytochalasin B-solution were added (100 μg/ml in DMSO, Sigma). The cells were incubated for further 3 min at 37° C. 75 μl of the cell suspension were added to 20 μl compound solution leading to a volume of 95 μl per well. After incubation of the cells for 10 min at 37° C. 10 μl hrC5a (10.5 nM in HAG-CM, Sigma) per well were added. The cells were incubated for additional 5 min at 37° C. The mtp was then transferred to ice and centrifuged for 3 min at 4° C. with 1200×g. 75 μl of the supernatant were added to 100 μl substrate-solution (2.7 mg/ml p-nitrophenyl-N-acetyl-β-D-glucosaminide (Sigma) in 42.5 mM Na-acetate pH 4.5). The mtp was incubated for further 60 min at 37° C. 75 μl 0.4 M glycine pH 10.4 were added per well. The mtp was transferred into a reader and the absorption at 405 nm was measured. IC50-values were obtained following the equation; y=((A-D)/(1+(x/C)^B))+D.
Determination of EC50-Values in an Enzyme Release Assay
The determination of EC50-values was performed according to the procedure given in example II, with the exception that 30 μl of the test compound need to be mixed with 75 μl of the cell suspension mentioned in example 11. Neither preincubation nor addition of C5a for stimulation of enzyme release is needed.

human C5aR(CD88) [2] = target: T1, human C5aR(CD88); assay: Determination of the IC50 value in an enzyme release assay (functional assay, antagonistic activity); assay type: cell-based; details: for IC50: antagonistic activity, IC50 group in enzyme release assay, RBL cells expressing human C5aR(CD88), read-out: activity (group); for inhibitory activity (in words): functional assay of example 11, noteworthy = IC50 less than 200 nM

Row | EC50 (human C5aR(CD88) [1]) [µM] | agonistic activity (in words) (human C5aR(CD88) [1]) | IC50 (human C5aR(CD88) [2]) [µM] | inhibitory activity (in words) (human C5aR(CD88) [2]) | inhibitory activity (in words) (human C5aR(CD88) [2]; listed as Ac-Phe-[Orn-Pro-cha-Trp-Eaf]) | Molecule
1 | > 1.43 | pure antagonists | 0.05 to 0.2 | noteworthy inhibitory activity | – | CCCC[C@@H]1NC(=O)[C@H](Cc2c[nH]c3ccccc23)NC(=O)[C@@H](CC2CCCCC2)NC(=O)[C@@H]2CCCN2C(=O)[C@@H](NC(=O)[C@H](Cc2ccccc2)NC(=O)CON=CC(O)C(O)C(O)C(O)CO)CCCNC1=O (single isomer, unassigned) [Compound 3, HOCH2(CHOH)4—C═N—O—CH2—CO-Phe-[Orn-Pro-cha-Trp-Nle]]
2 | – | pure antagonists | – | – | – | CC(=O)N[C@@H](Cc1ccccc1)C(=O)N[C@@H](CCCN)C(=O)N[C@H](CC1CCCCC1)C(=O)N[C@H](CC1CCCCC1)C(=O)N[C@@H](Cc1csc2ccccc12)C(=O)N[C@@H](Cc1ccccc1)C(N)=O [Ac-Phe-Orn-cha-cha-Bta-Phe-NH2] (Ac-F[Orn][dCha][dCha][Bta]F-NH2)
3 | > 1.43 | pure antagonists | 0.005 to 0.01 | without significant loss of activity | noteworthy inhibitory activity | C=CC[C@@H]1NC(=O)[C@H](Cc2c[nH]c3ccccc23)NC(=O)[C@@H](CC2CCCCC2)NC(=O)[C@@H]2CCCN2C(=O)[C@@H](NC(=O)[C@H](Cc2ccccc2)NC(C)=O)CCCNC1=O [Compound 33, Ac-Phe-[Orn-Pro-cha-Trp-Eaf]] (Ac-F[Orn]P[dCha]W[AllylGly]; lactam 2-C)
4 | > 1.43 | pure antagonists | 0.01 to 0.02 | noteworthy inhibitory activity | – | CCCC[C@@H]1NC(=O)[C@H](Cc2c[nH]c3ccccc23)NC(=O)[C@@H](CC2CCCCC2)NC(=O)[C@@H]2CCCN2C(=O)[C@@H](NC(=O)CCc2ccccc2)CCCNC1=O [Compound 41, Ph-CH2—CH2—CO-[Orn-Pro-cha-Trp-Nle]] (Hydrocinnamoyl-[Orn]P[dCha]W[Nle]; lactam 1-C)
5 | – | pure antagonists | – | – | – | CCCC[C@@H]1NC(=O)[C@H](Cc2c[nH]c3ccccc23)NC(=O)[C@@H](CC2CCCCC2)NC(=O)[C@H](CO)NC(=O)[C@@H](NC(=O)[C@@H](N)Cc2ccccc2)CCCNC1=O [Compound 44, H-Phe-[Orn-Ser-cha-Trp-Nle]] (H-F[Orn]S[dCha]W[Nle]; lactam 2-C)
6 | > 100 | pure antagonists | – | – | – | CC(=O)N[C@@H](Cc1ccccc1)C(=O)N[C@@H](CCCN)C(=O)N1CCC[C@H]1C(=O)N[C@H](CC1CCCCC1)C(=O)N[C@@H](Cc1c[nH]c2ccccc12)C(=O)N[C@@H](Cc1ccccc1)C(N)=O [Compound 61, Ac-Phe-Orn-Pro-cha-Trp-Phe-NH2] (Ac-F[Orn]P[dCha]WF-NH2)
7 | > 100 | pure antagonists | 0.02 to 0.05 | – | – | CC(=O)N[C@@H](Cc1cccs1)C(=O)N[C@@H](CCCN)C(=O)N1CCCC[C@H]1C(=O)N[C@H](CC1CCCCC1)C(=O)N[C@@H](Cc1csc2ccccc12)C(=O)N[C@@H](Cc1ccccc1)C(N)=O [Compound 67, Ac-Thi-Orn-Pip-cha-Bta-Phe-NH2] (Ac-[2Thi][Orn][Pip][dCha][Bta]F-NH2)
8 | > 100 | pure antagonists | 0.2 to 2 | – | – | CC(=O)N[C@H](C(=O)N[C@@H](CCCN)C(=O)N1CCC[C@H]1C(=O)N[C@H](CC1CCCCC1)C(=O)N[C@@H](Cc1c[nH]c2ccccc12)C(=O)N[C@@H](Cc1ccccc1)C(N)=O)C(c1ccccc1)c1ccccc1 [Compound 71, Ac-Ebw-Orn-Pro-cha-Trp-Phe-NH2] (Ac-[Dip][Orn]P[dCha]WF-NH2)
9 | > 100 | pure antagonists | 0.05 to 0.2 | – | – | CC(=O)N[C@@H](Cc1ccccc1)C(=O)N[C@@H](Cc1c[nH]c2ccccc12)C(=O)N1CCC[C@H]1C(=O)N[C@H](CC1CCCCC1)C(=O)N[C@@H](Cc1c[nH]c2ccccc12)C(=O)N[C@@H](Cc1ccccc1)C(N)=O [Compound 84, Ac-Phe-Trp-Pro-cha-Trp-Phe-NH2] (Ac-FWP[dCha]WF-NH2)
10 | > 100 | pure antagonists | 0.02 to 0.05 | – | – | CC(=O)N[C@@H](Cc1ccccc1)C(=O)N[C@@H](CCCNC(=N)N)C(=O)N1CCC[C@H]1C(=O)N[C@H](CC1CCCCC1)C(=O)N[C@@H](Cc1c[nH]c2ccccc12)C(=O)N[C@@H](Cc1ccccc1)C(N)=O [Compound 88, Ac-Phe-Arg-Pro-cha-Trp-Phe-NH2] (Ac-FRP[dCha]WF-NH2)
11 | – | pure antagonists | – | – | – | N[C@@H](Cc1ccccc1)C(=O)N[C@H]1CCCNC(=O)[C@H](Cc2ccccc2)NC(=O)[C@H](Cc2c[nH]c3ccccc23)NC(=O)[C@@H](CC2CCCCC2)NC(=O)[C@@H]2CCCN2C1=O [H-Phe-[Orn-Pro-cha-Trp-Phe]] (H-F[Orn]P[dCha]WF; lactam 2-C)
12 | 0.0024 | – | – | – | – | hrC5a: hrC5a (Sigma), added for stimulation of enzyme release (protein, UniProt P01031 678-751, looked up, C5a anaphylatoxin, hrC5a (Sigma), added for stimulation of enzyme release) C5a anaphylatoxin: TLQKKIEEIAAKYKHSVVKKCCYDGACVNNDETCEQRAARISLGPRCIKAFTECCVVASQLRANISHKDMQLGR

Row | Molecule | EC50 (human C5aR(CD88) [1]) [µM] | agonistic activity (in words) (human C5aR(CD88) [1]) | IC50 (human C5aR(CD88) [2]) [µM] | inhibitory activity (in words) (human C5aR(CD88) [2]) | inhibitory activity (in words) (human C5aR(CD88) [2]; listed as Ac-Phe-[Orn-Pro-cha-Trp-Eaf])
13 | CC(=O)N[C@@H](Cc1ccccc1)C(=O)N[C@@H](CCCN)C(=O)N1CCCC[C@H]1C(=O)N[C@H](CC1CCCCC1)C(=O)N[C@@H](Cc1c[nH]c2ccccc12)C(=O)N[C@@H](Cc1ccccc1)C(N)=O [Compound 55, Ac-Phe-Orn-Pip-cha-Trp-Phe-NH2] (Ac-F[Orn][Pip][dCha]WF-NH2) | > 100 | pure antagonists | 0.02 to 0.05 | – | –
14 | CC(=O)N[C@@H](Cc1ccccc1)C(=O)N[C@@H](CCCN)C(=O)N1CCC[C@H]1C(=O)N[C@H](CC1CCCCC1)C(=O)N[C@@H](Cc1csc2ccccc12)C(=O)N[C@@H](Cc1ccccc1)C(N)=O [Compound 62, Ac-Phe-Orn-Pro-cha-Bta-Phe-NH2] (Ac-F[Orn]P[dCha][Bta]F-NH2) | > 100 | pure antagonists | 0.02 to 0.05 | – | –
15 | CC(=O)N[C@@H](Cc1ccccc1)C(=O)N[C@@H](CCCN)C(=O)N1CC[C@H]1C(=O)N[C@H](CC1CCCCC1)C(=O)N[C@@H](Cc1c[nH]c2ccccc12)C(=O)N[C@@H](Cc1ccccc1)C(N)=O [Compound 83, Ac-Phe-Orn-Aze-cha-Trp-Phe-NH2] (Ac-F[Orn][Aze][dCha]WF-NH2) | > 100 | pure antagonists | 0.02 to 0.05 | – | –
16 | CC(=O)N[C@@H](Cc1ccccc1)C(=O)N[C@@H](CCCNC1=NCCN1)C(=O)N1CCC[C@H]1C(=O)N[C@H](CC1CCCCC1)C(=O)N[C@@H](Cc1csc2ccccc12)C(=O)N[C@@H](Cc1ccccc1)C(N)=O [Compound 150, Ac-Phe-Arg(CH2—CH2)-Pro-cha-Bta-Phe-NH2] (Ac-F[Orn(2-imidazolinyl)]P[dCha][Bta]F-NH2) | – | pure antagonists | 0.005 to 0.01 | noteworthy inhibitory activity | –
